Experiment [1] addresses T1, LFA-1 binding to immobilized ICAM-1 (Homo sapiens, UniProt P05107+P20701).
T1 construct: made in house; host or cells: transfected 293 cells (LFA-1)
The experiment in a line: LFA-1/ICAM-1 Protein-Protein Assay (solid-phase ELISA). The following applies: 5dICAM-Ig coated plates; membrane-bound LFA-1 from transfected 293 cells. As for the experimental part: LFA-1/ICAM-1 Protein-Protein Assay
LFA-1/ICAM-1 antagonist activity, defined as the ability to block LFA-1 binding to immobilized ICAM-1, was quantitated using a solid-phase ELISA. Typically, fusion protein consisting of the entire extracellular domain of human ICAM-1 and the Fc domain of human IgG (5dICAM-Ig) was coated onto 96-well microtiter plates (0.15 μg in 100 μL PBS) overnight at 4° C. The plates were then blocked with 150 μL of 1% BSA/1 mM MnCl2/0.14 M NaCl/20 mM HEPES, pH 7.2 for 1 h at 37° C. and washed 3 times (150 μL each) with Wash Buffer (50 mM Tris, pH 7.4/100 mM NaCl/1 mM MnCl2/0.05% Tween 20). Stock solutions (100 μM in 100% DMSO) of test compounds were diluted 50 fold with 150 μL of Binding Buffer (0.05% BSA/0.05% Tween 20/1 mM MnCl2/0.14 M NaCl/20 mM HEPES, pH 7.2) plus 10% DMSO. A series of 1:4 dilutions were performed to achieve a concentration range of 0.12 nM-2 μM. Fifty μL per well of each dilution was added to the ICAM-1 coated plates, followed by 50 μL per well of membrane-bound LFA-1 (280 ng/mL in Binding Buffer) derived from transfected 293 cells. The plates were shaken vigorously for 1 min (room temperature) and gently for 2 h (37° C.). After incubation, the plates were washed 3 times (150 μL each) with Wash Buffer. Mouse anti-human integrin β2 monoclonal antibody was added (100 μL/well, 1 μg/ml in Binding Buffer) and allowed to incubate for 1 h (37° C.) with gentle agitation. The plates were then washed 3 times with Wash Buffer. HRP-conjugated goat anti-mouse IgG (100 μL/well, 1:1500 dilution in Binding Buffer) was added to each well, followed by incubation for 1 h (37° C.) and concluded by three washes (150 μL each) with Wash Buffer. TMB solution (100 μL per well) was added for color development (10 min). The reaction was stopped by the addition of 100 μL of 1M H3PO4 to each well. The plates were then read at 450 nm.
On the technique in general: ELISA stands for enzyme-linked immunosorbent assay.

In experiment [2] the test system is T lymphocyte proliferation (murine spleen cells). Description: Mixed Lymphocyte Reaction (MLR), one-way. The format is cell-based, mice. The following applies: Mus musculus, T-lymphocyte, light or radiation study, 72 h, C57B1/6 spleen cells with irradiated BALB/c spleen cells; tritiated thymidine incorporation, 3 days. The source says:
Mixed Lymphocyte Reaction (MLR)
Admixture of murine spleen cells from two different inbred strains of mice induces proliferation of T lymphocytes. The magnitude of T cell proliferation depends on the extent of disparity in the major histocompatibility antigens between the two strains. Splenic T lymphocytes from both strains proliferate due to alloantigen recognition, a process for which the interaction of ICAM-1 on antigen-presenting cells with LFA-1 on lymphocytes is necessary. The ability of antagonists to inhibit T lymphocyte proliferation following recognition of alloantigens was assessed in a one-way MLR, where cells from one strain were irradiated to permit measurement of the proliferative response of cells from the other strain. Spleen cells were washed three times in tissue culture medium (TCM; see below). Fifty microliters of a spleen cell suspension (prepared at 10×10^6 cells/ml in TCM) obtained from C57B1/6 mice were added to an equal number of lethally-irradiated (2000 rads) spleen cells obtained from BALB/c mice in a 96-well U-bottom tissue culture plate (Costar, 3799). One hundred microliters of serial dilutions of antagonists or TCM were added to the spleen cell mixture. The total volume in each well was 200 μL. TCM was RPMI1640 containing 10% heat-inactivated fetal bovine serum, […] L-glutamine, 100 Units/ml each of penicillin and streptomycin and 5×10^−5 M 2-mercaptoethanol. Dilutions of antagonists were prepared in TCM. Plates were incubated in 5% CO2 for 3 days. On the third day, 0.5 μCi of tritiated thymidine (10 μCi/mL) was added to all the wells. Cells were harvested 6 h later on a 96-well plate harvester and the amount of tritiated thymidine incorporated was assessed in a liquid scintillation counter.
In general terms: Dividing cells build labelled thymidine or BrdU into new DNA.

From patent US6515124B2, “Dehydroamino acids” (Hoffman-La Roche Inc., priority 2000, dated 2003) come the findings set out here.

T1 sequence (P20701 26-1170): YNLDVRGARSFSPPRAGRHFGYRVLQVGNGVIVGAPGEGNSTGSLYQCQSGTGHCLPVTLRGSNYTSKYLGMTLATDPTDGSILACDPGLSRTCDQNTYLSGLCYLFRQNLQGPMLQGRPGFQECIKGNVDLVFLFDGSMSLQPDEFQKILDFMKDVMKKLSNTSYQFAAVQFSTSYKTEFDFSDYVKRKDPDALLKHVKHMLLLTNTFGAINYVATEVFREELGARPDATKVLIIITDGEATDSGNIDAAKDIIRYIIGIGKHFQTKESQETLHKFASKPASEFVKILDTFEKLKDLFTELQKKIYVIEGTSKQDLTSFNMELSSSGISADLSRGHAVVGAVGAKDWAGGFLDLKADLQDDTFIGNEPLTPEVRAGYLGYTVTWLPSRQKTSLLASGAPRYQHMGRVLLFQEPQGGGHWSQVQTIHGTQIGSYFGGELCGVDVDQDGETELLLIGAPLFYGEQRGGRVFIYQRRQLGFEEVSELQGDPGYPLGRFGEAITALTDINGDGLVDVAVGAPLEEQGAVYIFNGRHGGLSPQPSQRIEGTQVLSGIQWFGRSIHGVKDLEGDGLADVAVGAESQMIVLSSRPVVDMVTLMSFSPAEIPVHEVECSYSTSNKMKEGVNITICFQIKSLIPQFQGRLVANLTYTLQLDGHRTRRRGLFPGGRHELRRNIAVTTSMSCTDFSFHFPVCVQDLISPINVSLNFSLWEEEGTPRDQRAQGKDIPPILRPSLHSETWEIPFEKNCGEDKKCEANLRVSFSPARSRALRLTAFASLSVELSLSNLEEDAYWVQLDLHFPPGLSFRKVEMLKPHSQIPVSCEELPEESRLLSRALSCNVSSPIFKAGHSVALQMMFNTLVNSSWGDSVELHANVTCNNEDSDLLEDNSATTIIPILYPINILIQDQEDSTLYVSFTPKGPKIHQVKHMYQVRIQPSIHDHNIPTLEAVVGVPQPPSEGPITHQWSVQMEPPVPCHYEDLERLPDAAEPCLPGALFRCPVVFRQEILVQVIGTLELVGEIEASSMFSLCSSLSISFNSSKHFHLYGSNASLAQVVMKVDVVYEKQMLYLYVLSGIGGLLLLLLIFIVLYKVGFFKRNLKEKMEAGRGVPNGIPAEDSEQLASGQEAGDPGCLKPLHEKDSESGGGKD
T1 sequence (P05107 23-769): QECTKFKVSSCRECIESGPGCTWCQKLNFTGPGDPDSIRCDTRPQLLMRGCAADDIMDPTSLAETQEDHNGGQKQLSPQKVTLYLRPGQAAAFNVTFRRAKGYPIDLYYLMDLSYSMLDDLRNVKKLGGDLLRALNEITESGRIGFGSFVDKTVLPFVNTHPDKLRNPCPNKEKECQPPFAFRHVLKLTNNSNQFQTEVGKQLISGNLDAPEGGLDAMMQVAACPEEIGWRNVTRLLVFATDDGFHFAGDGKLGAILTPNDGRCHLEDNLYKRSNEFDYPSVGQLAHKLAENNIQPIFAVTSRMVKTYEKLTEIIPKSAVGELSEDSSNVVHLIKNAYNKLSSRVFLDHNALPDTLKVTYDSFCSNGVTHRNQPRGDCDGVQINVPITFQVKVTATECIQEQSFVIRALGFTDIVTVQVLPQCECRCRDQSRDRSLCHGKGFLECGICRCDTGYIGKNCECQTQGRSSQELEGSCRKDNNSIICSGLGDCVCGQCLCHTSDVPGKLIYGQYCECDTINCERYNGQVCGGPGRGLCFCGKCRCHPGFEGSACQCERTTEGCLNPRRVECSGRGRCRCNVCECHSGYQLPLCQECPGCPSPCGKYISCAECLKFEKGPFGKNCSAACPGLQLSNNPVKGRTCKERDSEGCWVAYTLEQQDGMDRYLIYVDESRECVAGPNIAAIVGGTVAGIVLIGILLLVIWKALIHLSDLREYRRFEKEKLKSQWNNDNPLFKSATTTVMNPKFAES

For `O=C(O)/C(=C/c1nc2ccccc2s1)NC(=O)c1ccc(C(=O)NCc2cccc(O)c2)cc1Br` [Example 276], the 50% inhibitory concentration (IC50) (commonly the concentration needed to halve the response being measured) in experiment [1] came out at 50.6 nM.
On to `O=C(O)/C(=C/c1csc2ccccc12)NC(=O)c1ccc(C(=O)NCc2cccc(O)c2)cc1Br` [Example 264], for which the IC50 in experiment [2] was found to be 13000 nM; in experiment [1] it was 4.2 nM.
In the case of `Cc1cc(C(=O)N[C@H](C)c2cccc3ccccc23)cc(C)c1C(=O)N/C(=C\c1ccccc1)C(=O)O` [Example 237], the half-inhibitory concentration (IC50) in experiment [2] is 20000 nM; in experiment [1] it was 27 nM.
As to `Cc1cc(C(=O)NCc2cc(F)cc(F)c2)cc(C)c1C(=O)N/C(=C\c1cnc2ccccc2c1)C(=O)O` [Example 253], the 50% inhibitory concentration (IC50) in experiment [2] turned out to be 8100 nM; in experiment [1], 6.54 nM.
With `O=C(O)/C(=C/c1ccc2ncsc2c1)NC(=O)c1ccc(C(=O)NCc2cccc3[nH]ccc23)cc1Br` [Example 267], the figures for the IC50 in experiment [2] and in experiment [1] were 6380 nM and 6.37 nM, respectively.
In experiment [1], `CCc1nc(C(C)C)c(/C=C(\NC(=O)c2ccc(C(=O)NCc3cccc(O)c3)cc2Cl)C(=O)O)s1` [Example 303, (Z)-2-[[2-Chloro-4-[[3-(3-hydroxybenzyl)amino]carbonyl]benzoyl]amino]-3-[2-ethyl-4-(1-methylethyl)thiazol-5-yl]propenoic Acid] yielded an IC50 of 190 nM.
As to `Cc1cc(C(=O)N[C@H](C)c2cccc3ccccc23)cc(C)c1C(=O)N/C(=C\c1ccncc1)C(=O)O` [Example 238], the IC50 in experiment [1] was determined as 16.7 nM.
With `Cc1nc(C)c(/C=C(\NC(=O)c2ccc(C(=O)CCc3cccc(O)c3)cc2Cl)C(=O)O)s1` [Example 295], the concentration for half-maximal inhibition (IC50) worked out at 10000 nM in experiment [2] and 3 nM in experiment [1].
Regarding `Cc1noc(C)c1/C=C(\NC(=O)c1ccc(C(=O)NCc2cccc(O)c2)cc1Br)C(=O)O` [Example 281], the 50% inhibitory concentration (IC50) came to 14500 nM in experiment [2] and 244 nM in experiment [1].
Regarding `O=C(O)/C(=C/c1ccccc1)NC(=O)c1ccc(C(=O)NCc2cccc(O)c2)cc1Br` [Example 269], the results for the half-maximal inhibitory concentration (IC50) in experiment [2] and in experiment [1] were 2200 nM and 4.31 nM, respectively.
With `O=C(O)/C(=C/c1ccccn1)NC(=O)c1ccc(C(=O)NCc2cccc(O)c2)cc1Br` [Example 273], the half-maximal inhibitory concentration (IC50) in experiment [2] is 1400 nM; in experiment [1], 5.4 nM.
The corresponding values for `O=C(O)/C(=C/c1ccccc1)NC(=O)c1ccc(C(=O)NCc2cccc3[nH]ccc23)cc1Cl` [Example 306] are 13800 nM and 10.4 nM.
As to `O=C(O)/C(=C/c1ccc2nonc2c1)NC(=O)c1ccc(C(=O)NCc2cccc(O)c2)cc1Cl` [Example 246], the IC50 amounted to 7850 nM in experiment [2] and 2.4 nM in experiment [1].
Consider `Cc1nc(C(C)C)c(/C=C(\NC(=O)c2ccc(C(=O)NCc3cccc(O)c3)cc2Br)C(=O)O)s1` [Example 259], for which the IC50 in experiment [1] worked out at 8.14 nM.
The compound `CC/C=C(\NC(=O)c1ccc(C(=O)NCc2cccc(O)c2)cc1Br)C(=O)O` [Example 289] displayed an IC50 in experiment [1] of 40.9 nM.
For `O=C(O)/C(=C/c1cnc2ccccc2c1)NC(=O)c1ccc(C(=O)NCc2cccc(O)c2)cc1Br` [Example 277], the results for the IC50 in experiment [2] and in experiment [1] were 356 nM and 0.53 nM, respectively.
Taken in the same sequence, the figures for `O=C(O)/C(=C/c1ccncc1)NC(=O)c1ccc(C(=O)NCc2cccc(O)c2)cc1Br` [Example 280] were 860 nM and 5 nM.
In experiment [1], `Cc1cc(C(=O)NCc2cc(F)cc(F)c2)cc(C)c1C(=O)N/C(=C\c1[nH]cnc1C)C(=O)O` [Example 250, (Z)-2-[[4-[[(3,5-Difluorobenzyl)amino]carbonyl]-2,6-dimethylbenzoyl]amino]-3-(4-methyl-1H-imidazol-5-yl)propenoic Acid] returned a concentration for half-maximal inhibition (IC50) of 37 nM.
Consider `O=C(O)/C(=C/c1ccc2[nH]nnc2c1)NC(=O)c1ccc(C(=O)NCc2cccc3[nH]ccc23)cc1Br` [Example 286], for which the IC50 is 1200 nM in experiment [2] and 0.74 nM in experiment [1].
In experiment [1], `Cc1cc(C(=O)NCc2cccc(O)c2)cc(C)c1C(=O)N/C(=C\c1ccc2[nH]nnc2c1)C(=O)O` [Example 326, (Z)-3-(1H-Benzotriazol-5-yl)-2-[[4-[[(3-hydroxybenzyl)amino]carbonyl]-2,6-dimethylbenzoyl]amino]propenoic Acid] showed an IC50 of 1.12 nM.
In the case of `O=C(O)/C(=C/c1nc(C(F)(F)F)cs1)NC(=O)c1ccc(C(=O)NCc2cccc(O)c2)cc1Br` [Example 257], in experiment [1], the IC50 was 101 nM.
The compound `O=C(O)/C(=C/C1CCCNC1)NC(=O)c1ccc(C(=O)NCc2cccc(O)c2)cc1Br` (racemic) [Example 318] yielded an IC50 in experiment [1] of 171 nM.
With `COc1ncc(/C=C(\NC(=O)c2ccc(C(=O)NCc3cccc(O)c3)cc2Br)C(=O)O)c(OC)n1` [Example 284], the IC50 in experiment [1] was found to be 12.6 nM.
The same measure, in the same setting: the same measure for `O=C(O)/C(=C/c1ccccn1)NC(=O)c1ccc(C(=O)NCc2cccc3[nH]ccc23)cc1Cl` [Example 310]: 56.1 nM.
Same read-out and setting: the same measure for `Cc1cc(C(=O)N[C@H](C)c2cccc3ccccc23)cc(C)c1C(=O)N/C(=C\c1ccc2[nH]nnc2c1)C(=O)O` [Example 239]: 2.15 nM; for `O=C(O)/C(=C/c1ccoc1)NC(=O)c1ccc(C(=O)NCc2cccc(O)c2)cc1Br` [Example 243]: 13.2 nM; for `C[C@@H](NC(=O)c1cc(Cl)c(C(=O)N/C(=C\c2ccc3[nH]nnc3c2)C(=O)O)c(Cl)c1)c1cccc2ccccc12` [Example 242]: 22 nM.
`O=C(O)/C(=C/c1cnc2ccccc2c1)NC(=O)c1ccc(C(=O)NCc2ccc3cc[nH]c3c2)cc1Cl` [Example 324, (Z)-2-[[2-Chloro-4-[[[(1N-indol-6-yl)methyl]amino]carbonyl]benzoyl]amino]-3-(quinolin-3-yl)propenoic Acid] had an IC50 in experiment [1] of 50.8 nM.
On to `O=C(O)/C(=C/CC1CCCCN1)NC(=O)c1ccc(C(=O)NCc2cccc(O)c2)cc1Br` (racemic) [Example 320], for which the IC50 in experiment [1] was 140 nM.
On the same count and under the same terms, in the case of `C[C@@H](NC(=O)c1ccc(C(=O)N/C(=C\c2cccs2)C(=O)O)c(Cl)c1)c1cccc2ccccc12` [Example 327] it was 20.4 nM; in that of `O=C(O)/C(=C/c1cnnc2ccccc12)NC(=O)c1ccc(C(=O)NCc2cccc(O)c2)cc1Br` [Example 265], 124 nM.
In the case of `O=C(O)/C(=C/c1ccc2ccccc2n1)NC(=O)c1ccc(C(=O)NCc2cccc(O)c2)cc1Br` [Example 275], the IC50 in experiment [1] came to 42.5 nM.
Still for that read-out and setting: in the case of `O=C(O)/C(=C/c1cccs1)NC(=O)c1ccc(C(=O)NCc2cccc3[nH]ccc23)cc1Cl` [Example 308] it was 56.3 nM; in that of `CC(C)c1csc(/C=C(\NC(=O)c2ccc(C(=O)NCc3cccc(O)c3)cc2Br)C(=O)O)n1` [Example 256], 279 nM; in that of `O=C(O)/C(=C/c1cccs1)NC(=O)c1ccc(C(=O)NCc2cccc(O)c2)cc1Br` [Example 271], 33 nM.
For the compound `O=C(O)/C(=C/c1cnc(-c2cccs2)s1)NC(=O)c1ccc(C(=O)NCc2cccc(O)c2)cc1Br` [Example 262], the 50% inhibitory concentration (IC50) in experiment [1] is 123 nM.
Still for that read-out and setting: the same measure for `O=C(O)/C(=C/C1CCNCC1)NC(=O)c1ccc(C(=O)NCc2cccc(O)c2)cc1Br` [Example 319]: 72 nM.
In experiment [1], `O=C(O)/C(=C/c1ccsc1)NC(=O)c1ccc(C(=O)NCc2cccc(O)c2)cc1Br` [Example 313] registered a concentration for half-maximal inhibition (IC50) of 8.2 nM.
As for `Cn1c(/C=C(\NC(=O)c2ccc(C(=O)NCc3cccc(O)c3)cc2Br)C(=O)O)nc2ccccc21` [Example 288], in experiment [1], the IC50 worked out at 201 nM.
